Data published in US9375436B2, “Androgen treatment in females” (priority 2004, dated 2016).
“And” between values parts separate entries of the source, which are not always exact repeats. Equal entries are not always repeated.

Tested on: person with prematurely aging ovaries
Assay: Case report: DHEA substitution in probable 17,20-desmolase deficiency (Patient B, Example 5)
Assay type: in vivo, human
Conditions: for Estradiol periovulatory: spontaneous ovulation
Procedure: In a further study, a case of probable 17, 20-desmolase deficiency, resulting in abnormally low estradiol, DHEA, androstenedione and testosterone levels, is presented in a person with a clinical history of, initially, unexplained infertility and, later, prematurely aging ovaries.
In July of 2003, the patient was started on 25 mg daily of micronized DHEA. After five weeks of treatment, DHEA, DHEA-S and androstenedione levels had normalized into mid-ranges. (Even though androstenedione is partially produced through the activity of 17,20-desmolase from 17-hydroxyprogesterone, part is also derived from DHEA through the activity of 3-beta hydroxysteroid dehydrogenase [Speroff et al., 1999a]. The normalization of androstenedione, after DHEA administration, therefore, also speaks for an underlying 17,20-desmolase defect, and not a 3-beta hydroxysteroid dehydrogenase deficiency.) In the third and fourth month, following the start of DHEA supplementation, the patient ovulated spontaneously with estradiol levels of 268 and 223 pg/ml (Table 2), respectively, measured on the day of LH surge.
On Jan. 28, 2004, and after DHEA therapy of approximately six months, a fourth IVF cycle was initiated. Their baseline FSH level in that cycle was 9.6 mIU/ml, estradiol 56 pg/ml. Stimulation took place with 300 IU of recombinant FSH (without hMG) and with an agonist flare protocol. […] A triplet pregnancy was established with heart beats. Two, out of the three fetuses lost heart beat spontaneously, and the patient delivered by cesarean section, at term, a healthy singleton infant.

[1] = January 2004, 4th IVF cycle start, DHEA approximately six months
[2] = fourth IVF cycle after DHEA therapy of approximately six months

For `C[C@]12CC[C@H](O)CC1=CC[C@@H]1[C@@H]2CC[C@]2(C)C(=O)CC[C@@H]12` [DHEA, Dehydroepiandrosterone], the Testosterone free (December 2003, on DHEA, normal (1-21)) was 2 pg/mL, the “Testosterone free and weekly bound” value (December 2003, on DHEA, normal (3-29)) was 4 ng/dL and the Estradiol baseline [1] was 56 pg/mL. For the same compound, the FSH baseline [1] was 9.6 mIU/ml, the FSH (January 2004, on DHEA, first value) was 18 mIU/ml and the Androstenedione level (July 2003 after DHEA treatment start, normal (65-270)) was 121 ng/dL. The Estradiol (November 2003, on DHEA) was 38 pg/mL, the FSH (November 2003, on DHEA) was 17 mIU/ml and the Estradiol (October 2003, on DHEA) was 44 pg/mL. The FSH (October 2003, on DHEA) was 14.7 mIUI/ml, the Estradiol periovulatory (October 2003, on DHEA) was 223 pg/mL and 224 pg/mL and the Estradiol periovulatory (September 2003, on DHEA) was 268 pg/mL. For the same compound, the oocytes retrieved [2] was 8 and the peak estradiol level [2] was 1764 pg/mL.
